Source: ChEMBL document CHEMBL1201862, “PubChem BioAssay data set” (2004)
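Protocol summary: plate cells (96-well), add compound at 5 concentrations, incubate 48 h, interpolate endpoints linearly. GI50: concentration for 50% inhibition of growth.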 Calls of active or inactive are those of the source. Rule as the data show it: active = GI50 up to about 1.1 µM and inactive = higher.

How the values were obtained:
Experiment in all cases: DTP human tumour cell line panel, 48 h
OVCAR-3 = tested on: OVCAR-3
K562 = tested on: K562
SNB-19 = tested on: SNB-19
OVCAR-5 = tested on: OVCAR-5
ACHN = tested on: ACHN
SK-OV-3 = tested on: SK-OV-3
LOX IMVI = tested on: LOX IMVI
HCC 2998 = tested on: HCC 2998
Malme-3M = tested on: Malme-3M
A498 = tested on: A498
SF-268 = tested on: SF-268
NCI-H522 = tested on: NCI-H522
RPMI-8226 = tested on: RPMI-8226
NCI-H226 = tested on: NCI-H226
SK-MEL-28 = tested on: SK-MEL-28
HOP-62 = tested on: HOP-62
HCT-15 = tested on: HCT-15
HOP-92 = tested on: HOP-92

Measured: GI50

C/C(=C1/N=C(c2cc([N+](=O)[O-])ccc2Cl)N(C2=CC=C(Cl)CC2)C1=O)c1cc2ccccc2oc1=O
inactive: OVCAR-3 36.8 µM | K562 > 100 µM | SNB-19 44.1 µM | OVCAR-5 41.5 µM | ACHN 3.93 µM | SK-OV-3 > 100 µM | LOX IMVI 20.4 µM | HCC 2998 24.7 µM | Malme-3M 28.5 µM | A498 23.4 µM | SF-268 36.9 µM | NCI-H522 14.4 µM | RPMI-8226 32.4 µM | NCI-H226 29 µM | SK-MEL-28 26.3 µM | HOP-62 31.5 µM

CCOC(=O)C12CC1(C(=O)OCC)C1CCC2C1 (configuration not stated)
inactive: OVCAR-3 97.3 µM | K562 68.5 µM | SNB-19 > 100 µM | HOP-92 23.8 µM | OVCAR-5 > 100 µM | ACHN > 100 µM | SK-OV-3 > 100 µM | LOX IMVI > 100 µM | HCC 2998 > 100 µM | Malme-3M 91.8 µM | A498 > 100 µM | SF-268 > 100 µM | RPMI-8226 > 100 µM | NCI-H226 > 100 µM | SK-MEL-28 > 100 µM | HOP-62 > 100 µM
> 100 µM: HCT-15

Nc1cc2c(cc1[N+](=O)[O-])[nH]c1c(-c3ccccc3)nccc12
12 µM: HCT-15
inactive: OVCAR-3 19.1 µM | K562 7.57 µM | SNB-19 23.8 µM | HOP-92 12 µM | OVCAR-5 27.1 µM | SK-OV-3 10.9 µM | LOX IMVI 13.6 µM | HCC 2998 13.2 µM | Malme-3M 17.4 µM | A498 30.5 µM | SF-268 25.2 µM | NCI-H522 12 µM | RPMI-8226 8.24 µM | NCI-H226 17 µM | SK-MEL-28 27.1 µM | HOP-62 15.2 µM

COC(=O)C1=C(C)N(NC(=O)c2ccccc2)C2(O)CCCC(=O)C12C (configuration not stated)
inactive: OVCAR-3 > 100 µM | SNB-19 > 100 µM | HOP-92 > 100 µM | OVCAR-5 > 100 µM | ACHN > 100 µM | SK-OV-3 > 100 µM | LOX IMVI > 100 µM | Malme-3M > 100 µM | A498 > 100 µM | NCI-H522 > 100 µM | RPMI-8226 > 100 µM | NCI-H226 4.37 µM | SK-MEL-28 > 100 µM
> 100 µM: HCT-15

COc1nc2[nH]ccc2c(=O)n1C
> 100 µM: HCT-15
inactive: K562 > 100 µM | SNB-19 > 100 µM | HOP-92 > 100 µM | OVCAR-5 > 100 µM | ACHN > 100 µM | LOX IMVI > 100 µM | Malme-3M > 100 µM | A498 > 100 µM | SF-268 > 100 µM | RPMI-8226 > 100 µM | SK-MEL-28 > 100 µM

Cc1cc(O)nc(NN2C(Cl)C(=O)C2c2cccc(O)c2)n1 (configuration not stated)
5.74 µM: HCT-15
inactive: OVCAR-3 3.14 µM | K562 2.7 µM | SNB-19 3.48 µM | HOP-92 4.67 µM | OVCAR-5 24.9 µM | ACHN 4.61 µM | LOX IMVI 4.53 µM | HCC 2998 15.1 µM | SF-268 5.62 µM | RPMI-8226 9.59 µM | SK-MEL-28 26.5 µM | HOP-62 4.49 µM

COc1ccc(/C(=N\NC(=O)NN)C(c2ccc(OC)cc2)C2(O)C(=O)Nc3c(Cl)cc(Cl)cc32)cc1 (configuration not stated)
inactive: OVCAR-3 > 100 µM | SNB-19 > 100 µM | HOP-92 > 100 µM | OVCAR-5 > 100 µM | ACHN > 100 µM | LOX IMVI 99.3 µM | HCC 2998 > 100 µM | Malme-3M > 100 µM | SF-268 > 100 µM | RPMI-8226 56.8 µM | NCI-H226 > 100 µM | SK-MEL-28 > 100 µM | HOP-62 > 100 µM
